# Measured values from US8933103B2, “Pyridone derivatives” (Daiichi Sankyo Company, Limited, priority 2012, dated 2015).
# Target: T1, AXL (fusion protein of amino acids 464-885 of the intracellular domain of human AXL with glutathione transferase) (Homo sapiens, UniProt P30530)
# T1 sequence (P30530 464-885 isoform P30530-2): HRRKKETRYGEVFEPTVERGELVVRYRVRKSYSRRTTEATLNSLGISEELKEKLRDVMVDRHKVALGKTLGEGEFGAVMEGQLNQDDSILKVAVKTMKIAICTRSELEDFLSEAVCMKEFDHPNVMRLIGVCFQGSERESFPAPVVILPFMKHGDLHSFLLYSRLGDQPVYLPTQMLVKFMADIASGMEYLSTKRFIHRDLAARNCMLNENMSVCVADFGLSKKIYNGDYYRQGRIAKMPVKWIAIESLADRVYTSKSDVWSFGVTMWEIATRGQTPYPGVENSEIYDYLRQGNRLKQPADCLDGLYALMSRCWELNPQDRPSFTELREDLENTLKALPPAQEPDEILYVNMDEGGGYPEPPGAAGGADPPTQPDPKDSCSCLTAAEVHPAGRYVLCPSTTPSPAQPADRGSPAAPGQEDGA
# Assay: Cell-Free Axl Kinase Inhibitory Activity
# Description: Next, the test compound was diluted with DMSO, and 1 μl of this diluted solution was added to each well.
# Five microliters of this solution were added to each well to initiate a kinase reaction. The plate was incubated at 28° C. for 1.5 hours, and 40 μl of a termination buffer (100 mM HEPES (pH 7.4), 0.015% Brij-35, 40 mM EDTA, 0.1% Coating Reagent 3) was added to each well to terminate the reaction.
# The substrate peptide and the phosphorylated peptide in the reaction solution were separated and quantified by EZ Reader II (Caliper Life Sciences).
# IC50 was determined from inhibition data for 12 test compound concentrations by nonlinear regression (four-parameter logistic regression) using the following formula.
row,SMILES,IC50
1,"COc1ccc(-c2cnc(N)c(-c3ccc(NC(=O)c4cn(CCF)cc(-c5ccccc5)c4=O)cc3)c2)cc1OC [Example 19, N-{4-[2-Amino-5-(3,4-dimethoxyphenyl)pyridin-3-yl]phenyl}-1-(2-fluoroethyl)-4-oxo-5-phenyl-1,4-dihydropyridine-3-carboxamide]",1 to 10 nM
2,"COc1ccc(-c2cnc(N)c(-c3ccc(NC(=O)c4cn(Cc5ccccn5)cc(-c5ccc(F)cc5)c4=O)cc3)c2)cc1OC [Example 12, N-{4-[2-Amino-5-(3,4-dimethoxyphenyl)pyridin-3-yl]phenyl}-5-(4-fluorophenyl)-4-oxo-1-(pyridin-2-ylmethyl)-1,4-dihydropyridine-3-carboxamide]",0.1 to 1 nM
3,"Cn1cc(-c2cnc(N)c(-c3ccc(NC(=O)c4cn(CC(F)F)cc(-c5ccc(F)cc5)c4=O)cc3)c2)cn1 [Example 49, N-{4-[2-Amino-5-(1-methyl-1H-pyrazol-4-yl)pyridin-3-yl]phenyl}-1-(2,2-difluoroethyl)-5-(4-fluorophenyl)-4-oxo-1,4-dihydropyridine-3-carboxamide]",1 to 10 nM
4,"CN(C)C(=O)c1cn(Cc2ccc(F)cc2)cc(C(=O)Nc2ccc(-c3cc(-c4cnn(C)c4)cnc3N)cc2)c1=O [Example 60, N′-{4-[2-Amino-5-(1-methyl-1H-pyrazol-4-yl)pyridin-3-yl]phenyl}-1-(4-fluorobenzyl)-N,N-dimethyl-4-oxo-1,4-dihydropyridine-3,5-dicarboxamide]",1 to 10 nM
5,"COc1cn(Cc2ccc(F)cc2)cc(C(=O)Nc2ccc(-c3cc(-c4cnn(C)c4)cnc3N)cc2)c1=O [Example 59, N-{4-[2-Amino-5-(1-methyl-1H-pyrazol-4-yl)pyridin-3-yl]phenyl}-1-(4-fluorobenzyl)-5-methoxy-4-oxo-1,4-dihydropyridine-3-carboxamide]",10 to 20 nM
6,"COc1ccc(-c2cnc(N)c(-c3ccc(NC(=O)c4cn(CC(F)(F)OC)cc(-c5ccc(F)cc5)c4=O)cc3)c2)cc1OC [Example 17, N-{4-[2-Amino-5-(3,4-dimethoxyphenyl)pyridin-3-yl]phenyl}-1-(2,2-difluoro-2-methoxyethyl)-5-(4-fluorophenyl)-4-oxo-1,4-dihydropyridine-3-carboxamide]",0.1 to 1 nM
7,"CCn1cc(C(=O)Nc2ccc(-c3cc(-c4ccc(OC[C@H]5COCCO5)c(OC)c4)cnc3N)cc2)c(=O)c(-c2ccc(F)cc2)c1 [Example 46, N-[4-(2-Amino-5-{4-[(2R)-1,4-dioxan-2-ylmethoxy]-3-methoxyphenyl}pyridin-3-yl)phenyl]-1-ethyl-5-(4-fluorophenyl)-4-oxo-1,4-dihydropyridine-3-carboxamide]",1 to 10 nM
8,"Cn1cc(-c2cnc(N)c(-c3ccc(NC(=O)c4cn(CCF)cc(-c5ccc(F)cc5)c4=O)cc3)c2)cn1 [Example 48, N-{4-[2-Amino-5-(1-methyl-1H-pyrazol-4-yl)pyridin-3-yl]phenyl}-1-(2-fluoroethyl)-5-(4-fluorophenyl)-4-oxo-1,4-dihydropyridine-3-carboxamide]",1 to 10 nM
9,"COc1ccc(-c2cnc(N)c(-c3ccc(NC(=O)c4cn(C(C)C)cc(-c5ccc(F)cc5)c4=O)cc3)c2)cc1OC [Example 4, N-{4-[2-Amino-5-(3,4-dimethoxyphenyl)pyridin-3-yl]phenyl}-5-(4-fluorophenyl)-4-oxo-1-(propan-2-yl)-1,4-dihydropyridine-3-carboxamide]",1 to 10 nM
10,"COc1ccc(-c2cnc(N)c(-c3ccc(NC(=O)c4cn(CC(F)(F)F)cc(-c5ccc(Cl)cc5)c4=O)cc3)c2)cc1OC [Example 25, N-{4-[2-Amino-5-(3,4-dimethoxyphenyl)pyridin-3-yl]phenyl}-5-(4-chlorophenyl)-4-oxo-1-(2,2,2-trifluoroethyl)-1,4-dihydropyridine-3-carboxamide]",1 to 10 nM
11,"COc1ccc(-c2cnc(N)c(-c3ccc(NC(=O)c4cn(Cc5ccccc5)cc(-c5ccc(F)cc5)c4=O)cc3)c2)cc1OC [Example 10, N-{4-[2-Amino-5-(3,4-dimethoxyphenyl)pyridin-3-yl]phenyl}-1-benzyl-5-(4-fluorophenyl)-4-oxo-1,4-dihydropyridine-3-carboxamide]",1 to 10 nM
12,"COc1ccc(-c2cnc(N)c(-c3ccc(NC(=O)c4cn(Cc5ccc(F)cc5)cc(-c5ccc(F)cc5)c4=O)cc3)c2)cc1OC [Example 11, N-{4-[2-Amino-5-(3,4-dimethoxyphenyl)pyridin-3-yl]phenyl}-1-(4-fluorobenzyl)-5-(4-fluorophenyl)-4-oxo-1,4-dihydropyridine-3-carboxamide]",0.1 to 1 nM
13,"COc1cc(-c2cnc(N)c(-c3ccc(NC(=O)c4cn(CCF)cc(-c5ccccc5)c4=O)cc3)c2)ccc1OC[C@H]1COCCO1 [Example 44, N-[4-(2-Amino-5-{4-[(2R)-1,4-dioxan-2-ylmethoxy]-3-methoxyphenyl}pyridin-3-yl)phenyl]-1-(2-fluoroethyl)-4-oxo-5-phenyl-1,4-dihydropyridine-3-carboxamide]",1 to 10 nM
14,"CCn1cc(C(=O)Nc2ccc(-c3cc(-c4ccc(OC[C@H]5COCCO5)c(OC)c4)cnc3N)cc2)c(=O)c(-c2ccccc2)c1 [Example 45, N-[4-(2-Amino-5-{4-[(2R)-1,4-dioxan-2-ylmethoxy]-3-methoxyphenyl}pyridin-3-yl)phenyl]-1-ethyl-4-oxo-5-phenyl-1,4-dihydropyridine-3-carboxamide]",1 to 10 nM
15,"COc1ccc(-c2cnc(N)c(-c3ccc(NC(=O)c4cn(Cc5ccc(F)cc5)cc(C(=O)N5C[C@@H](C)O[C@@H](C)C5)c4=O)cc3)c2)cc1OC [Example 27, N-{4-[2-Amino-5-(3,4-dimethoxyphenyl)pyridin-3-yl]phenyl}-5-{[(2R,6S)-2,6-dimethylmorpholin-4-yl]carbonyl}-1-(4-fluorobenzyl)-4-oxo-1,4-dihydropyridine-3-carboxamide]",0.1 to 1 nM
16,"Cn1cc(-c2cnc(N)c(-c3ccc(NC(=O)c4cn(Cc5ccc(F)cc5)ccc4=O)cc3)c2)cn1 [Example 56, N-{4-[2-Amino-5-(1-methyl-1H-pyrazol-4-yl)pyridin-3-yl]phenyl}-1-(4-fluorobenzyl)-4-oxo-1,4-dihydropyridine-3-carboxamide]",1 to 10 nM

# Results, then the compound that gave them:
row,IC50,SMILES
1,1 to 10 nM,"Nc1ncc(-c2cnn(C[C@H]3COCCO3)c2)cc1-c1ccc(NC(=O)c2cn(CCF)cc(-c3ccc(F)cc3)c2=O)cc1 [Example 65, N-[4-(2-Amino-5-{1-[(2S)-1,4-dioxan-2-ylmethyl]-1H-pyrazol-4-yl}pyridin-3-yl)phenyl]-1-(2-fluoroethyl)-5-(4-fluorophenyl)-4-oxo-1,4-dihydropyridine-3-carboxamide]"
2,0.1 to 1 nM,"Nc1ncc(-c2cnn(C[C@H]3COCCO3)c2)cc1-c1ccc(NC(=O)c2cn(Cc3ccc(F)cc3)cc(C(=O)N3CCCC3)c2=O)cc1F [Example 76, N-[4-(2-Amino-5-{1-[(2S)-1,4-dioxan-2-ylmethyl]-1H-pyrazol-4-yl}pyridin-3-yl)-3-fluorophenyl]-1-(4-fluorobenzyl)-4-oxo-5-(pyrrolidin-1-ylcarbonyl)-1,4-dihydropyridine-3-carboxamide]"
3,1 to 10 nM,"CCN(CC)C(=O)c1cn(Cc2ccc(F)cc2)cc(C(=O)Nc2ccc(-c3cc(-c4cnn(C[C@H]5COCCO5)c4)cnc3N)cc2)c1=O [Example 70, N′-[4-(2-Amino-5-{1-[(2S)-1,4-dioxan-2-ylmethyl]-1H-pyrazol-4-yl}pyridin-3-yl)phenyl]-N,N-diethyl-1-(4-fluorobenzyl)-4-oxo-1,4-dihydropyridine-3,5-dicarboxamide]"
4,1 to 10 nM,"CCOCCn1cc(C(=O)Nc2ccc(-c3cc(-c4cnn(C[C@H]5COCCO5)c4)cnc3N)cc2)c(=O)c(-c2ccc(F)cc2)c1 [Example 67, N-[4-(2-Amino-5-{1-[(2S)-1,4-dioxan-2-ylmethyl]-1H-pyrazol-4-yl}pyridin-3-yl)phenyl]-1-(2-ethoxyethyl)-5-(4-fluorophenyl)-4-oxo-1,4-dihydropyridine-3-carboxamide]"
5,1 to 10 nM,"COc1ccc(-c2cnc(N)c(-c3ccc(NC(=O)c4cn(CC(F)(F)F)cc(-c5ccc(F)cc5)c4=O)cn3)c2)cc1OC [Example 87, N-[2′-Amino-5′-(3,4-dimethoxyphenyl)-2,3′-bipyridin-5-yl]-5-(4-fluorophenyl)-4-oxo-1-(2,2,2-trifluoroethyl)-1,4-dihydropyridine-3-carboxamide]"
6,0.1 to 1 nM,"CCn1cc(C(=O)Nc2ccc(-c3cc(-c4cnn(C[C@H]5COCCO5)c4)cnc3N)cc2)c(=O)c(-c2ccc(F)cc2)c1 [Example 64, N-[4-(2-Amino-5-{1-[(2S)-1,4-dioxan-2-ylmethyl]-1H-pyrazol-4-yl}pyridin-3-yl)phenyl]-1-ethyl-5-(4-fluorophenyl)-4-oxo-1,4-dihydropyridine-3-carboxamide]"
7,0.1 to 1 nM,"CC(=O)N1CC=C(c2cnc(N)c(-c3ccc(NC(=O)c4cn(CC(F)(F)F)cc(-c5ccc(F)cc5)c4=O)cc3)c2)CC1 [Example 80, N-[4-(1′-Acetyl-6-amino-1′,2′,3′,6′-tetrahydro-3,4′-bipyridin-5-yl)phenyl]-5-(4-fluorophenyl)-4-oxo-1-(2,2,2-trifluoroethyl)-1,4-dihydropyridine-3-carboxamide]"
8,0.1 to 1 nM,"Cc1cc(-c2cnc(N)c(-c3ccc(NC(=O)c4cn(CC(F)(F)F)cc(-c5ccc(F)cc5)c4=O)cc3)c2)ccn1 [Example 77, N-[4-(6-Amino-2′-methyl-3,4′-bipyridin-5-yl)phenyl]-5-(4-fluorophenyl)-4-oxo-1-(2,2,2-trifluoroethyl)-1,4-dihydropyridine-3-carboxamide]"
